SMILES strings stand for the structures. pIC50: −log10 of the molar value. Read-outs that look alike come from different tables or passages of the source.

Test [1] addresses GST-tagged K-Ras mutant / His-tagged hSOS1 (Homo sapiens, UniProt P01116). The test is described as follows: HTRF assay, K-Ras mutant / SOS1 interaction. The test is classed as binding. Conditions: read-out: IC50 against mutant Kras. From the text: (§1) This assay can be also used to assess a selective inhibition of a mutant Ras protein relative to a wildtype, or relative to a different mutant Ras protein. For example, the equilibrium interaction of wildtype Kras or K-Ras mutant (e.g., wildtype or a mutant thereof including those mentioned in Example 6) with SOS1 (e.g., hSOS1) can be assessed as a proxy or an indication for a subject compound's ability to bind and inhibit Ras protein. HTRF assay detects from (i) a fluorescence resonance energy transfer (FRET) donor (e.g., antiGST-Europium) that is bound to GST-tagged K-Ras mutant to (ii) a FRET acceptor (e.g., anti-6His-XL665) bound to a His-tagged hSOS1.
(§2) The assay buffer can contain ˜5 mM HEPES pH 7.4, ˜150 mM NaCl, ˜ 1 mM DTT, 0.05% BSA and 0.0025% (v/v) Igepal. A Ras working solution is prepared in an assay buffer containing typically a suitable amount of the protein construct (e.g., GST-tagged K-Ras mutant) and the FRET donor (e.g., antiGST-Eu(K) from Cisbio, France). A SOS1 working solution is prepared in an assay buffer containing suitable amount of the protein construct (e.g., His-hSOS1) and the FRET acceptor (e.g., anti-6His-XL665 from Cisbio, France). A suitable amount of the protein construct will depend on the range of activity or range of IC50 values being detected or under investigation. For detecting IC50 within a range of 500 nM, the protein constructs of the same range of molarity can be utilized.
(§3) A fixed volume of DMSO with or without test compound is transferred into a 384-well plate. Ras working solution is added to all wells of the test plate. SOS1 working solution is added to all wells except for those that are subsequently filled the inhibitor control solution. Upon incubation for about 10 minutes or longer, the fluorescence is measured with a M1000Pro plate reader (Tecan) using HTRF detection (excitation 337 nm, emission 1: 620 nm, emission 2: 665 nm). Compounds are tested in duplicates at different concentrations (for example, 10 μM, 2.5 μM, 0.63 μM, 0.16 μM, 0.04 µM, 0.01 μM test compound). The ratiometric data (i.e., emission 2 divided by emission 1) is used to calculate IC50 values against Ras using GraphPad Prism (GraphPad software). Following this general procedure, samples were tested with or without a subject compound disclosed herein including compounds exemplified in Table 1 to assess their abilities to inhibit K-Ras signaling or their respective IC50 values against a given Ras protein (e.g., a given mutant K-Ras) of interest.

In test [2] the target is T1, wildtype Kras / hSOS1 (Homo sapiens, UniProt P01116).
T1 construct: made in house; host or cells: E. coli BL21 (DE3)
The test is described as follows: HTRF assay, wildtype Kras / SOS1 interaction. The settings on record: read-out: IC50 against wildtype Kras. The test is classed as binding.
From the text: as §1, §2, §3
On the technique in general: In TR-FRET formats the signal depends on donor and acceptor labels being close together.

[3] abbreviates: compound nos. 102-196, general methodology of example 5.

T1 sequence (P01116 1-188 isoform P01116-2): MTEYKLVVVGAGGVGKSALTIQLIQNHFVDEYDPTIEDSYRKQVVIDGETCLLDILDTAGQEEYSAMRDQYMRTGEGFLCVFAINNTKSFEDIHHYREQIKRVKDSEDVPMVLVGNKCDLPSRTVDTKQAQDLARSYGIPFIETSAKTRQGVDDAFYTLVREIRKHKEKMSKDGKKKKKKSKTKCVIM
Chain of GST-tagged K-Ras mutant / His-tagged hSOS1 (P01116 whole entry G12D, form open): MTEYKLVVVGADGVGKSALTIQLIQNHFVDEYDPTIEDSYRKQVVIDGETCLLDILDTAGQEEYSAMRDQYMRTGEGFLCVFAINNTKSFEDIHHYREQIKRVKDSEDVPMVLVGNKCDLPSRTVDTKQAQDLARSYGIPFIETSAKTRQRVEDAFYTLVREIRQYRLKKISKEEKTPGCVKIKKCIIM

For the molecule `Nc1nc2c(-c3c(Cl)cc4c(N5CCNCC(O)C5)nc(OCC56CCCN5CCC6)nc4c3F)ccc(F)c2s1` (stereo not shown) [Compound 161, 1-(7-(2-amino-7-fluoro-benzo[d]thiazol-4-yl)-6-chloro-8-fluoro-2-((tetra-hydro-1H-pyrrolizin-7a(5H)-yl)methoxy)quinazolin-4-yl)-1,4-diazepan-6-ol], the pIC50 in test [1] (setting [3]) and in test [2] (setting [3]) was greater than 6.30 throughout.
For `Oc1cc(-c2c(Cl)cc3c(N4CC5CCC(C4)N5)nc(OCC45CCCN4CCC5)nc3c2F)cc(C(F)(F)F)c1` [Compound 614, 3-(4-(3,8-diazabicyclo-[3.2.1]octan-3-yl)-6-chloro-8-fluoro-2-((tetrahydro-1H-pyrrolizin-7a(5H)-yl)meth-oxy)quinazolin-7-yl)-5-(trifluoromethyl)phenol], the pIC50 in test [1] (compound nos. 401-703) and in test [2] (compound nos. 401-703) was less than 6.30 in each case.
In the case of `Nc1nc2c(-c3c(Cl)cc4c(N5CCCOCC5)nc(OC[C@@]56CCCN5C[C@H](F)C6)nc4c3F)cccc2o1` [Compound 167], the pIC50 in test [1] (setting [3]) and in test [2] (setting [3]) was greater than 6.30 in each case.
As to `Nc1nc2c(-c3c(Cl)cc4c(N5CCCCC(N)C5)nc(OC[C@@]56CCCN5C[C@H](F)C6)nc4c3F)ccc(F)c2s1` (stereo partly drawn) [Compound 543, 4-(4-(3-aminoazepan-1-yl)-6-chloro-8-fluoro-2-(((2R,7aS)-2-fluorotetra-hydro-1H-pyrrolizin-7a(5H)-yl)methoxy)quinazolin-7-yl)-7-fluorobenzo[d]thiazol-2-amine], the pIC50 (usually the IC50 on a negative log10 scale, so that one unit is a factor of ten) in test [1] (compound nos. 401-703) is greater than 6.30; in test [2] (compound nos. 401-703), less than 6.30.
Regarding `CN1CCC[C@@H]1COc1nc(N2CCNCC(F)(F)C2)c2cc(Cl)c(-c3cccc4sc(N)nc34)c(F)c2n1` [Compound 113, 4-(6-chloro-4-(6,6-difluoro-1,4-diazepan-1-yl)-8-fluoro-2-(((R)-1-methylpyrrolidin-2-yl)methoxy)quinazolin-7-yl)benzo[d]thiazol-2-amine], the pIC50 in test [1] (setting [3]) and in test [2] (setting [3]) was greater than 6.30 throughout.
Take `CN1CCC[C@H]1COc1nc(N2CCNCC(F)(F)C2)c2cc(C#N)c(-c3cccc4sc(N)nc34)c(F)c2n1` [Compound 125, 7-(2-aminobenzo[d]thiazol-4-yl)-4-(6,6-difluoro-1,4-diazepan-1-yl)-8-fluoro-2-(((S)-1-methylpyrrolidin-2-yl)methoxy)quinazoline-6-carbonitrile]: the pIC50 in test [1] (setting [3]) and in test [2] (setting [3]) was less than 6.30 throughout.
As for `Cc1ccc2[nH]nc(C#N)c2c1-c1c(Cl)cc2c(N3CC4CCC(C3)N4)nc(OC[C@@]34CCCN3C[C@H](F)C4)nc2c1F` [Compound 632, 4-(4-(3,8-diazabicyclo-[3.2.1]octan-3-yl)-6-chloro-8-fluoro-2-(((2R,7aS)-2-fluorotetrahydro-1H-pyrrol-izin-7a(5H)-yl)methoxy)-quin-azolin-7-yl)-5-methyl-1H-indazole-3-carbonitrile], the figures for the pIC50 in test [1] (compound nos. 401-703) and in test [2] (compound nos. 401-703) were greater than 6.30 and less than 6.30, respectively.
On the same counts, the results for `CNCCCN1[C@@H]2CC[C@H]1CN(c1nc(OCC34CCCN3CCC4)nc3c(F)c(-c4ccc(F)c5sc(N)nc45)c(Cl)cc13)C2` [Compound 594, 4-(6-chloro-8-fluoro-4-((1R,5S)-8-(3-(methyl-amino)propyl)-3,8-diaza-bicyclo[3.2.1]octan-3-yl)-2-((tetrahydro-1H-pyrrol-izin-7a(5H)-yl)methoxy)-quinazolin-7-yl)-7-fluoro-benzo[d]thiazol-2-amine] are greater than 6.30 and less than 6.30.
For the molecule `N#CN1CCN(c2nc(OCC34CCCN3CCC4)nc3c(F)c(-c4ccc(F)c5sc(N)nc45)c(Cl)cc23)CC(F)(F)C1` [Compound 551, 4-(7-(2-amino-7-fluorobenzo[d]thiazol-4-yl)-6-chloro-8-fluoro-2-((tetrahydro-1H-pyrrolizin-7a(5H)-yl)methoxy)quinazolin-4-yl)-6,6-difluoro-1,4-diazepane-1-carbonitrile], the values for the pIC50 in test [1] (compound nos. 401-703) and in test [2] (compound nos. 401-703) were greater than 6.30 and less than 6.30, respectively.
Regarding `Nc1cccc(-c2ccccc2-c2c(Cl)cc3c(N4CCCCCC4)nc(OCC45CCCN4CCC5)nc3c2F)c1` [Compound 666, 2′-(4-(azepan-1-yl)-6-chloro-8-fluoro-2-((tetrahydro-1H-pyrrolizin-7a(5H)-yl)meth-oxy)quinazolin-7-yl)-[1,1′-biphenyl]-3-amine], the pIC50 in test [1] (compound nos. 401-703) and in test [2] (compound nos. 401-703) was less than 6.30 throughout.
As for `NC(=O)C1COCCN(c2nc(OC[C@@]34CCCN3C[C@H](F)C4)nc3c(F)c(-c4ccc(F)c5sc(N)nc45)c(Cl)cc23)C1` (stereo partly drawn) [Compound 507, 4-(7-(2-amino-7-fluoroben-zo[d]thiazol-4-yl)-6-chloro-8-fluoro-2-(((2R,7aS)-2-fluorotetrahydro-1H-pyrrol-izin-7a(5H)-yl)methoxy)-quinazolin-4-yl)-1,4-oxazepane-6-carboxamide], the pIC50 in test [1] (compound nos. 401-703) is greater than 6.30; in test [2] (compound nos. 401-703), less than 6.30.
Turning to `Nc1nc2c(-c3c(Cl)cc4c(N5CCNCC(O)C5)nc(OCC56CCCN5C[C@H](F)C6)nc4c3F)ccc(F)c2s1` (stereo partly drawn) [Compound 162, 1-(7-(2-amino-7-fluoro-benzo[d]thiazol-4-yl)-6-chloro-8-fluoro-2-(((2R)-2-fluorotetrahydro-1H-pyrrol-izin-7a(5H)-yl)methoxy)-quinazolin-4-yl)-1,4-diazepan-6-ol], the pIC50 in test [1] (setting [3]) and in test [2] (setting [3]) was greater than 6.30 each time.
`Nc1nc2c(-c3c(Cl)cc4c(N5CC6CCC(C5)N6)nc(OC[C@@]56CCCN5C[C@H](F)C6)nc4c3F)cccc2o1` [Compound 588, 4-(4-(3,8-diazabicyclo-[3.2.1]-octan-3-yl)-6-chloro-8-fluoro-2-(((2R,7aS)-2-fluorotetrahydro-1H-pyrrol-izin-7a(5H)-yl)methoxy)-quinazolin-7-yl)benzo[d]-oxazol-2-amine]: the values for the pIC50 in test [1] (compound nos. 401-703) and in test [2] (compound nos. 401-703) were greater than 6.30 and less than 6.30, respectively.
`Nc1nc2c(-c3c(Cl)cc4c(N5CCOCC(O)C5)nc(OCC56CCCN5CCC6)nc4c3F)cccc2s1` (stereo not shown) [Compound 156, 4-(7-(2-aminobenzo[d]-thiazol-4-yl)-6-chloro-8-fluoro-2-((tetrahydro-1H-pyrrolizin-7a(5H)-yl)-methoxy)quinazolin-4-yl)-1,4-oxazepan-6-ol]: the pIC50 in test [1] (setting [3]) and in test [2] (setting [3]) was greater than 6.30 in each case.
In the case of `CN1CCC[C@H]1COc1nc(N2CCC(O)C(F)CC2)c2cc(Cl)c(-c3cccc4sc(N)nc34)c(F)c2n1` (stereo partly drawn) [Compound 675, 1-(7-(2-aminobenzo[d]-thiazol-4-yl)-6-chloro-8-fluoro-2-(((S)-1-methyl-pyrrolidin-2-yl)methoxy)-quinazolin-4-yl)-5-fluoro-azepan-4-ol], the pIC50 in test [2] (compound nos. 401-703) is less than 6.30.
Consider `CN1CCC[C@H]1COc1nc(N2CCCC(NC3CC3)CC2)c2cc(Cl)c(-c3cccc4sc(N)nc34)c(F)c2n1` (stereo partly drawn) [Compound 590, 4-(6-chloro-4-(4-(cycloprop-ylamino)azepan-1-yl)-8-fluoro-2-(((S)-1-methylpyr-rolidin-2-yl)methoxy)quin-azolin-7-yl)benzo[d]thiazol-2-amine], for which the pIC50 in test [1] (compound nos. 401-703) is less than 6.30.
`N#CCC1CNCCN(c2nc(OCC34CCCN3CCC4)nc3c(F)c(-c4ccc(F)c5sc(N)nc45)c(Cl)cc23)C1` (stereo not shown) [Compound 188, 2-(1-(7-(2-amino-7-fluoro-benzo[d]thiazol-4-yl)-6-chloro-8-fluoro-2-((tetra-hydro-1H-pyrrolizin-7a(5H)-yl)methoxy)quin-azolin-4-yl)-1,4-diazepan-6-yl)acetonitrile]: the pIC50 in test [1] (setting [3]) was greater than 6.30.

Source of the values: patent US20240254129A1, “HETEROCYCLIC COMPOUNDS AND USES THEREOF” (Kumquat Biosciences Inc., priority 2021, published 2024).
